Results taken from ChEMBL document CHEMBL1201862, “PubChem BioAssay data set” (2004).
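96-well plates; 48 h exposure; 5 concentrations. Endpoints by linear interpolation between flanking doses. Not reached: highest tested concentration assigned. Abbreviation: GI50, concentration required for 50% inhibition of growth.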 Active and inactive are the calls of the source. Rule as the data show it: active = GI50 up to about 1.1 µM and inactive = higher.

Experiments:
Assay in all cases: DTP human tumour cell line panel, 48 h
U-251 = test system: U-251
SW-620 = test system: SW-620
SN12C = test system: SN12C
UO-31 = test system: UO-31
CAKI-1 = test system: CAKI-1
COLO 205 = test system: COLO 205
UACC-257 = test system: UACC-257
NCI-H23 = test system: NCI-H23
SF-268 = test system: SF-268
SF-539 = test system: SF-539
SK-MEL-2 = test system: SK-MEL-2
MDA-MB-435 = test system: MDA-MB-435
OVCAR-4 = test system: OVCAR-4
NCI-H522 = test system: NCI-H522
CCRF-CEM = test system: CCRF-CEM
SNB-19 = test system: SNB-19
HCT-116 = test system: HCT-116
NCI-H460 = test system: NCI-H460
M14 = test system: M14
HOP-92 = test system: HOP-92

| SMILES | GI50 (U-251) | GI50 (SW-620) | GI50 (SN12C) | GI50 (UO-31) | GI50 (CAKI-1) | GI50 (COLO 205) | GI50 (UACC-257) | GI50 (NCI-H23) | GI50 (SF-268) | GI50 (SF-539) | GI50 (SK-MEL-2) | GI50 (MDA-MB-435) | GI50 (OVCAR-4) | GI50 (NCI-H522) | GI50 (CCRF-CEM) | GI50 (SNB-19) | GI50 (HCT-116) | GI50 (NCI-H460) | GI50 (M14) | GI50 (HOP-92) |
| --- | --- | --- | --- | --- | --- | --- | --- | --- | --- | --- | --- | --- | --- | --- | --- | --- | --- | --- | --- | --- |
| COc1cccc2c3cccc(OC)c3c3[nH]cnc3c12 | 1.67 µM (inactive) | 1.73 µM (inactive) | 5.45 µM (inactive) | 1.66 µM (inactive) | 16.9 µM (inactive) | 16.5 µM (inactive) | 17.7 µM (inactive) | 1.84 µM (inactive) | 4.54 µM (inactive) | 1.32 µM (inactive) | 20.1 µM (inactive) | 2.06 µM (inactive) | 5.45 µM (inactive) | 1.55 µM (inactive) | 0.923 µM (active) | 5.01 µM (inactive) | 1.63 µM (inactive) | 1.72 µM (inactive) | 1.71 µM (inactive) | 6.04 µM (inactive) |
| C=C1[C@H](OCC(C)C)[C@@H](OC(=O)C(C)CC)[C@@H](O)C(C)(C)/C=C/[C@H](C)C(=O)[C@@]2(O)C[C@H](C)[C@H](O)[C@@H]2[C@H]1OC(=O)C(C)CC (stereo not given in full) | 5.82 µM (inactive) | 5.24 µM (inactive) | 7.29 µM (inactive) | 0.499 µM (active) | 3.32 µM (inactive) | 0.904 µM (active) | 5.22 µM (inactive) | 5.2 µM (inactive) | 4.78 µM (inactive) | 3.05 µM (inactive) | 4.99 µM (inactive) | 1.7 µM (inactive) | 5.45 µM (inactive) | 8.63 µM (inactive) | 0.564 µM (active) | 14.5 µM (inactive) | 4.88 µM (inactive) | 0.463 µM (active) | 2.15 µM (inactive) | 1.79 µM (inactive) |
| CN(Cc1ccccc1)/C(=N\C#N)N(Cc1ccccc1)Cc1ccccc1 | 28.2 µM (inactive) | 40.4 µM (inactive) | 34.7 µM (inactive) | 26.5 µM (inactive) | 20.1 µM (inactive) | 19 µM (inactive) | 21.6 µM (inactive) | 21.9 µM (inactive) | 34.4 µM (inactive) | 19.8 µM (inactive) | 20.3 µM (inactive) | 15.1 µM (inactive) | 24.4 µM (inactive) | 18.1 µM (inactive) | 37.2 µM (inactive) | 40.2 µM (inactive) | 18.7 µM (inactive) | 27.6 µM (inactive) | 20.3 µM (inactive) | 16.9 µM (inactive) |
| Nc1ncn2c(n1)nc1ccccc12 | > 100 µM (inactive) | > 100 µM (inactive) | > 100 µM (inactive) | > 100 µM (inactive) | > 100 µM (inactive) | > 100 µM (inactive) | > 100 µM (inactive) | > 100 µM (inactive) | > 100 µM (inactive) | > 100 µM (inactive) | > 100 µM (inactive) | > 100 µM (inactive) | > 100 µM (inactive) | > 100 µM (inactive) | > 100 µM (inactive) | > 100 µM (inactive) | > 100 µM (inactive) | > 100 µM (inactive) | > 100 µM (inactive) | 37.2 µM (inactive) |
| COC(=O)[C@H](Cc1c[nH]c2ccccc12)NC(=O)c1ccc(CNC(=O)/C(C)=C/c2ccccc2)cc1 | 80 µM (inactive) | > 100 µM (inactive) | > 100 µM (inactive) | 63.7 µM (inactive) | > 100 µM (inactive) | 22.8 µM (inactive) | 18 µM (inactive) | 25.7 µM (inactive) | 97.5 µM (inactive) | > 100 µM (inactive) | 12.4 µM (inactive) | 36.4 µM (inactive) | 30.3 µM (inactive) | 14.6 µM (inactive) | 41 µM (inactive) | > 100 µM (inactive) | 71.4 µM (inactive) | 27.9 µM (inactive) | 15.9 µM (inactive) | 16 µM (inactive) |
